Measurements taken from patent US20060110790A1, “Expression system for large functional proteins” (priority 2002, published 2006).

Experiments:
full-length ABCR = full-length ABCR (Homo sapiens, UniProt P78363); assay: Retinal-stimulated ATPase activity of purified protein reconstituted in lipid vesicles; format: biochemical; design: Membranes from transfected cells expressing either full-length ABCR (lanes 1 & 2) or co-expressing the N and C halves; expressed in transfected cells; host or cells: transfected cells (COS-1 or EBNA293); conditions: expressed in COS-1 cells, purified on Rim 3F4 column, 50 μM [α32P]ATP
Protocol: Membranes (from two 10 cm dishes) were solubilized in 0.5 ml of 1% Triton-X100 in Buffer A (140 mM NaCl, 20 mM Tris-HCl, pH 7.4) for 20 min on ice. For ATPase assays, the membrane preparation step was omitted and the cell suspension was solubilized directly in Buffer B (10 mg/ml soybean phospholipids, 10% glycerol, 1 mM dithiothreitol, 100 mM NaCl, 3 mM MgCl2, 50 mM NaHEPES, pH 7.4) containing 18 mM CHAPS. The supernatant after a 10 min centrifugation at 40,000 rpm (TLA100.4 rotor) was mixed with 50 μl Rim3F4 Sepharose 2B for 1 h at 4° C. The beads were washed 6 times in Buffer A containing 0.2% Triton X-100 or Buffer B containing 10 mM CHAPS and eluted with 4% SDS (for electrophoresis) or 0.2 mg/ml Rim3F4 peptide (for reconstitution and determination of ATPase activity). […]
ATPase activity was measured as described previously (Ahn, J., Wong, J. T., and Molday, R. S. (2000) J Biol Chem 275(27), 20399-405) using 50 μM [α^32P]ATP and thin layer chromatography. The all-trans retinal concentration was determined spectrophotometrically (λ383 nm=42.88 mM^−1 cm^−1). […]
ATPase Activity of Expressed N and C Halves—The basal and retinal activated ATPase activity of full-length ABCR and the N and C halves individually or co-expressed in COS-1 cells was determined after immunoaffinity purification and reconstitution into lipid vesicles. […]

ABCR = target: T1, ABCR (Homo sapiens, UniProt P78363); assay: 8-azido-ATP/ADP nucleotide trapping in membranes from transfected cells; format: binding; conditions: 50 μM all-trans retinal, 5 μM 8-azido-[α-32P]ATP, 37° C.
T1 construct: Membranes from transfected cells expressing either full-length ABCR (lanes 1 & 2) or co-expressing the N and C halves; expressed in transfected cells; host or cells: transfected cells (COS-1 or EBNA293)
Protocol: FIG. 7. Nucleotide trapping by ABCR and co-expressed N and C halves. A. Effect of orthovanadate on nucleotide trapping. Membranes from transfected cells were incubated with 5 μM 8-azido-[α-^32P]ATP at 37° C., washed, and tightly bound nucleotides were UV crosslinked. Lane 1, full-length ABCR; lane 2, full-length ABCR incubated with 800 μM orthovanadate; lane 3, co-expressed N and C halves; lane 4, co-expressed N- and C-halves incubated with 800 μM orthovanadate. B. Effect of temperature and retinal on nucleotide trapping. Lane 1, full-length ABCR labeled at 0° C.; lane 2, full-length ABCR labeled at 37° C.; lane 3, full-length ABCR labeled at 37° C. in the presence of 50 μM all-trans retinal; lane 4, co-expressed N and C halves labeled at 0° C.; lane 5, co-expressed N and C halves labeled at 37° C.; lane 6, co-expressed N and C halves labeled at 37° C. in the presence of 50 μM all-trans retinal.
8-Azido-ATP Trapping—Membranes were incubated with 5 μM 8-azido-[α-^32P]ATP in 50 μl of labeling buffer with or without 800 μM sodium orthovanadate for 10 min at 37° C. All-trans retinal and 50 μM DTT were added where indicated. Binding was stopped by the addition of ice-cold 20 mM Tris-HCl, pH 7.4, the membranes were collected by centrifugation and washed one more time. Samples exposed to orthovanadate were washed in the presence of 800 μM orthovanadate. […]

Chain of full-length ABCR (P78363 whole entry): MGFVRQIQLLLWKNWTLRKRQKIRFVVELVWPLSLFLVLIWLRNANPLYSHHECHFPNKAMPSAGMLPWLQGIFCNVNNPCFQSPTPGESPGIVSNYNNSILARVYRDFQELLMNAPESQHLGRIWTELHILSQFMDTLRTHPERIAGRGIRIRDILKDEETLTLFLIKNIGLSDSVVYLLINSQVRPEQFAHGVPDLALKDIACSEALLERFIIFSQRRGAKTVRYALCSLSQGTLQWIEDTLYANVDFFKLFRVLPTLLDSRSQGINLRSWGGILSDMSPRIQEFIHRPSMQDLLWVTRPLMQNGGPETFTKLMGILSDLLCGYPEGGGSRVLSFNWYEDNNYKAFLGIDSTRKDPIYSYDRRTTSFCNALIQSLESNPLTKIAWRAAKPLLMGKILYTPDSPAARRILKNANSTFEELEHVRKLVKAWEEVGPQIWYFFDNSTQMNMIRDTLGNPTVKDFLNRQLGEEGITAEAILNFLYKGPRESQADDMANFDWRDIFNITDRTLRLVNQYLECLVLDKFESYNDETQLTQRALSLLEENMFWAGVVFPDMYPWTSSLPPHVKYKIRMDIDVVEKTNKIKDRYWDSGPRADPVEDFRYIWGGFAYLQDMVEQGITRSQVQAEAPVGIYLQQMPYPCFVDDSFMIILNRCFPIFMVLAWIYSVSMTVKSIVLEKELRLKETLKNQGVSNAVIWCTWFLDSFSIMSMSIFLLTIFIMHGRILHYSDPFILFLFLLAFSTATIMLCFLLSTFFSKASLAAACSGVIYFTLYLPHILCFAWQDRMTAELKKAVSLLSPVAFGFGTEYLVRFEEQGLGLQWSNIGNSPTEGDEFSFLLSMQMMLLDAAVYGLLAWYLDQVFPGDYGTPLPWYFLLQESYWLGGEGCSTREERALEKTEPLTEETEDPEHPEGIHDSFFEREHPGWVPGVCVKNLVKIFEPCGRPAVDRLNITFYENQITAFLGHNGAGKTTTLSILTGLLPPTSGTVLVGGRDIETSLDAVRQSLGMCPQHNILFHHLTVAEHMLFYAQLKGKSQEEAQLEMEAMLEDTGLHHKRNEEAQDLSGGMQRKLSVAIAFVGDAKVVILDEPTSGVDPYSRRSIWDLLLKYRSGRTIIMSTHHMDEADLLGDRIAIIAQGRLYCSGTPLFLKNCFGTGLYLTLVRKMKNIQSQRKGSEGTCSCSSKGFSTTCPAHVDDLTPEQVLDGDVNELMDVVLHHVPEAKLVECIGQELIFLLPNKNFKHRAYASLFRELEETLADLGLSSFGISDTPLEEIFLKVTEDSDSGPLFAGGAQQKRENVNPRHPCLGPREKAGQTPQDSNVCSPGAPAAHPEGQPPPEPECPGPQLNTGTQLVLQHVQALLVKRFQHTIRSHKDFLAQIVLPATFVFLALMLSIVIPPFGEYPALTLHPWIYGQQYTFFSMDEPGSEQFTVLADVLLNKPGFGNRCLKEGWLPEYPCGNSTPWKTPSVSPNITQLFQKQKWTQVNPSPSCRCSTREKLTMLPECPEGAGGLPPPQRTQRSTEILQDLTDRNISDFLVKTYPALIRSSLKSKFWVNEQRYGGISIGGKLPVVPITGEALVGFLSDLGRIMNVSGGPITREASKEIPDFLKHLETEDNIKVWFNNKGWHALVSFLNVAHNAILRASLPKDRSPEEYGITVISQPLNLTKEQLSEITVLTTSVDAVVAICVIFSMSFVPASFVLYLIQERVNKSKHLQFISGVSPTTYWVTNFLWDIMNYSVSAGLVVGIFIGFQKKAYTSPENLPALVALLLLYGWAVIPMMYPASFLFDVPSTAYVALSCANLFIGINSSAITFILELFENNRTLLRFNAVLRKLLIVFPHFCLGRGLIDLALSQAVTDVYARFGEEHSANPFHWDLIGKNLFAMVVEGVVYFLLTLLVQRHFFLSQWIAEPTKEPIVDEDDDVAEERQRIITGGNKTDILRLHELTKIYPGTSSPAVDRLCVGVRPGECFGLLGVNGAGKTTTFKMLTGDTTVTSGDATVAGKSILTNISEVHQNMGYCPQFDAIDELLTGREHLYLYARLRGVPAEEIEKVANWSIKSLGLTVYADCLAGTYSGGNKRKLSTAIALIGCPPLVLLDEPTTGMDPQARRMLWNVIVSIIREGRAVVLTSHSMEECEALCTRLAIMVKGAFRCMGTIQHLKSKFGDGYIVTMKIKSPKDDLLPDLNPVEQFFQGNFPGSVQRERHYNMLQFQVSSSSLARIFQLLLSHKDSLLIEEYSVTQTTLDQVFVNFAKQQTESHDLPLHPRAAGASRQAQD
T1 sequence (P78363 whole entry): as above

## CC1=C(/C=C/C(C)=C/C=C/C(C)=C/C=O)C(C)(C)CCC1 [all-trans retinal]
full-length ABCR
  stimulation of ATPase activity: 1-2 fold
ABCR
  effect on 8-azido ATP/ADP trapping: not dependent on sodium orthovanadate or influenced
